This note sets out measurements from ChEMBL document CHEMBL2311506, “Novel benzoxazole inhibitors of mPGES-1” (Bioorg Med Chem Lett, 2013).

In one data set the target is T1, Prostaglandin E synthase (Homo sapiens, UniProt O14684).
T1 sequence (O14684 whole entry): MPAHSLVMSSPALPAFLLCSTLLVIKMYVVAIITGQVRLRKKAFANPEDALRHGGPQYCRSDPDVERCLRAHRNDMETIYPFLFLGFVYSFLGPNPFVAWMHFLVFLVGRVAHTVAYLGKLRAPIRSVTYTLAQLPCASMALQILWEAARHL
The experiment in a line: Inhibition of human recombinant mPGES-1 using PGH2 as substrate incubated 20 mins prior to substrate addition measured after 30 secs by EIA.

The nature of data set [1]: Plasma protein binding in human. Format: ADME, cell-free. Particulars: read-out: PPB (converted).
A short description of data set [2]: Inhibition of rat mPGES-1 transfected in CHOK1 cells using [3H]PGH2 as substrate. It is filed as cell-based. Particulars: cho-k1.
In data set [3] the target is T2, Prostaglandin G/H synthase 2 (Homo sapiens, UniProt P35354).
T2 sequence (P35354 whole entry): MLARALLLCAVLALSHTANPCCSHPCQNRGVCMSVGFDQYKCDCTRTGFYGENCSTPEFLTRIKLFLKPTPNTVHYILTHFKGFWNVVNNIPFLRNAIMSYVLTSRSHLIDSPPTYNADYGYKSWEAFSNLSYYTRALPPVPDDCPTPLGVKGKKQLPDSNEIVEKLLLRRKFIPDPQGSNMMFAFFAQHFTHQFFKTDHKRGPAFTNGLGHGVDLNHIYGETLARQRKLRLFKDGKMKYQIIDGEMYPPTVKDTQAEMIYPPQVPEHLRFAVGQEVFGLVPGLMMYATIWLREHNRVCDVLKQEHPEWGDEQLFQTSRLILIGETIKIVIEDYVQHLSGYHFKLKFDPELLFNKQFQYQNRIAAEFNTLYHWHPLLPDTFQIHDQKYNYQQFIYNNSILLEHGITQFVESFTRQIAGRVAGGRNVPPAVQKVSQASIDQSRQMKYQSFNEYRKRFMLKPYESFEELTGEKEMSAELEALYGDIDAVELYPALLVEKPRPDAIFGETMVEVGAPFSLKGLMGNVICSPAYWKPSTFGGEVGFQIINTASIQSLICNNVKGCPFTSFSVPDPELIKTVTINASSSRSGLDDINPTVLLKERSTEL
The experiment in a line: Inhibition of COX2 in human fetal fibroblast assessed as SnCl2-induced PGF2alpha production after 40 mins by ELISA.

Data set [4] can be described thus: Tmax in dog at 0.5 mg/kg, po. It is filed as ADME, organism-based, Canis lupus familiaris. On the set-up: dose 0.5 mg/kg, route oral. Conditions: in vivo.
Data set [5] concerns the target Hematopoietic prostaglandin D synthase (Homo sapiens, UniProt O60760). Description: Inhibition of human PGDS.
Data set [6] in a line: Volume of distribution at steady state in dog at 0.25 mg/kg, iv. Format: ADME, organism-based, Canis lupus familiaris. Set-up: dose 0.25 mg/kg, route intravenous. Particulars: in vivo, read-out: Vdss.
Data set [7] in a line: Inhibition of recombinant rat mPGES-1 using PGH2 as substrate incubated 20 mins prior to substrate addition measured after 30 secs by EIA.
Data set [8] can be described thus: Half life in human liver microsomes. It is filed as ADME, Microsome. In general terms: Liver microsomes are a subcellular fraction often used to study metabolism.
The nature of data set [9]: Half life in human hepatocytes. Format: ADME, cell-based, Hepatocyte.
Data set [10] is described as follows: Oral bioavailability in dog at 0.5. It is filed as ADME, organism-based, Canis lupus familiaris. Particulars: in vivo.
A short description of data set [11]: Permeability of the compound by pampa. Conditions: read-out: permeability. Format: ADME.
A short description of data set [12]: Half life in rat liver microsomes. It is filed as ADME, Microsome.
The nature of data set [13]: Cmax in dog at 0.5 mg/kg, po. It is filed as ADME, organism-based, Canis lupus familiaris. Set-up: dose 0.5 mg/kg, route oral. Particulars: in vivo.
Data set [14] can be described thus: Plasma protein binding in rat. Particulars: read-out: PPB (converted). It is filed as ADME, cell-free.
Data set [15] can be described thus: Mean residence time in dog at 0.25 mg/kg, iv. It is filed as ADME, organism-based, Canis lupus familiaris. Set-up: dose 0.25 mg/kg, route intravenous. Conditions: in vivo.
Data set [16] can be described thus: Half life in dog at 0.25 mg/kg, iv. It is filed as ADME, organism-based, Canis lupus familiaris. Set-up: dose 0.25 mg/kg, route intravenous. Particulars: in vivo.

Sequence of Hematopoietic prostaglandin D synthase (O60760 whole entry): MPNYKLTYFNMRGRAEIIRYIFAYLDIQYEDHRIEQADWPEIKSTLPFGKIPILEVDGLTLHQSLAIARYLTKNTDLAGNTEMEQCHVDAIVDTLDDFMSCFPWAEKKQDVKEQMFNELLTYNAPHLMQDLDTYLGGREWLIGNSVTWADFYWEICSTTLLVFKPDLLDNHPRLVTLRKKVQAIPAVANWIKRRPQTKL

The IC50 is the midpoint of a concentration-inhibition curve. As for `O=C(NC1CCCC1C(=O)O)C1CCN(c2nc3cc(Cl)ccc3o2)CC1` (stereo unspecified), the 50% inhibitory concentration (IC50) on Prostaglandin E synthase was 7.18 µM.

For the compound `CC1CCCC1NC(=O)C1CCN(c2nc3cc(Cl)ccc3o2)CC1` (stereo unspecified), the IC50 on Prostaglandin E synthase is 0.242 µM.

Regarding `CO[C@@H]1CCC[C@H]1NC(=O)C1CCN(c2nc3cc(Cl)ccc3o2)CC1`, the 50% inhibitory concentration (IC50) at Prostaglandin E synthase was determined as 8.15 µM.

Take `O=C(CCCNc1nc2cc(Cl)ccc2o1)NC1CCCC1`: on Prostaglandin E synthase, the IC50 is over 10 µM.

In the case of `O=C(N[C@H]1CCC[C@@H]1CO)C1CCN(c2nc3cc(Cl)ccc3o2)CC1`, on Prostaglandin E synthase, the half-maximal inhibitory concentration (IC50) turned out to be 3.2 µM.

Take `CCCCO[C@@H]1CCC[C@H]1NC(=O)C1CCN(c2nc3cc(Cl)ccc3o2)CC1`: the IC50 at Prostaglandin E synthase was found to be 0.826 µM.

On to `O=C(N[C@@H]1CCC[C@H]1OCC1CCCC1)C1CCN(c2nc3cc(Cl)ccc3o2)CC1`, for which the IC50 on Prostaglandin E synthase is 0.176 µM.

For the compound `CN(C(=O)C1CCN(c2nc3cc(Cl)ccc3o2)CC1)C1CCCC1`, the half-maximal inhibitory concentration (IC50) on Prostaglandin E synthase is over 30 µM.

For `O=C(NC1CCCC1)N1CCN(c2nc3cc(Cl)ccc3o2)CC1`, at Prostaglandin E synthase, the IC50 was over 10 µM.

On to `O=C(NC1CCCC1c1ccccc1)C1CCN(c2nc3cc(Cl)ccc3o2)CC1` (stereo unspecified), for which the concentration for half-maximal inhibition (IC50) at Prostaglandin E synthase worked out at 0.291 µM.

On to `O=C(N[C@@H]1CCC[C@@H]1COc1ccccc1)C1CCN(c2nc3cc(Cl)ccc3o2)CC1`, for which the concentration for half-maximal inhibition (IC50) at Prostaglandin E synthase worked out at 0.0431 µM.

For `O=C(NC1CCC1)C1CCN(c2nc3cc(Cl)ccc3o2)CC1`, the IC50 on Prostaglandin E synthase turned out to be 3.01 µM.

As for `O=C(N[C@H]1CCC[C@@H]1COc1ccccc1)C1CCN(c2nc3cc(Cl)ccc3o2)CC1`, the IC50 at Prostaglandin E synthase came to 0.034 µM. The fraction unbound in data set [1] is under 0.01.

For `O=C(N[C@@H]1CCC[C@@H]1CO)C1CCN(c2nc3cc(Cl)ccc3o2)CC1`, the IC50 on Prostaglandin E synthase worked out at 0.785 µM.

As for `CSCCNC(=O)C1CCN(c2nc3cc(Cl)ccc3o2)CC1`, on Prostaglandin E synthase, the 50% inhibitory concentration (IC50) worked out at 1.2 µM.

For `CC(C)c1ccc2c(c1)c(SC(C)(C)C)c(CC(C)(C)C(=O)O)n2Cc1ccc(Cl)cc1`, the half-maximal inhibitory concentration (IC50) in data set [2] was found to be 8.2 µM.

`O=S(=O)(NC1CCCC1)C1CCN(c2nc3cc(Cl)ccc3o2)CC1`: the IC50 on Prostaglandin E synthase is over 10 µM.

As for `O=C(NC1CCCC1)C1CCN(c2nc3cc(Cl)ccc3o2)CC1`, in data set [1], the fraction unbound was 0.005. Besides, the IC50 in data set [3] is over 100 µM.

As to `O=C(NC1CCCC1)N1CCCN(c2nc3cc(Cl)ccc3o2)CC1`, the IC50 on Prostaglandin E synthase stood at 12.9 µM.

In general, Tmax refers to the time from dosing to the highest level. What is called half-life is the time needed for the level to fall by half in the phase considered. What is called bioavailability is dose-corrected exposure relative to a reference, in per cent. A high value points to much systemic uptake. By Cmax is commonly meant the peak of the concentration-time curve. As usually defined, the MRT is the average time that molecules of a dose stay in the body. For `O=C(N[C@H]1CCC[C@@H]1OCc1ccccc1)C1CCN(c2nc3cc(Cl)ccc3o2)CC1`, the Tmax in [4] came out at 30 min. Besides, the IC50 was over 10 µM in [5], over 10 µM in data set [7] and over 100 µM in data set [3]. In data set [6], the Vd turned out to be 1 L/kg. Besides, the half-life is 10.8 min in data set [8], 80 min in data set [9], 7.2 min in data set [12] and 432 min in data set [16]. The bioavailability in [10] worked out at 55%. In addition, the Papp in [11] was 1.3 ×10⁻⁶ cm/s. Also, in data set [13], the Cmax came to 1300 nM. Moreover, the fraction unbound in data set [14] is 0.02. The compound further gave an MRT in data set [15] of 486 min.

`O=C(NC1CCCCCC1)C1CCN(c2nc3cc(Cl)ccc3o2)CC1`: the half-maximal inhibitory concentration (IC50) on Prostaglandin E synthase is 0.821 µM.
